According to ChEMBL document CHEMBL3792365, “Dioxol and dihydrodioxin analogs of 2- and 3-phenylacetonitriles as potent anti-cancer agents with nanomolar activity against a variety of human cancer cells” (2016):

What was measured:
Type in all cases: functional
[1] = Growth inhibition of human SNB75 cells at 10 uM after 48 hrs by sulforhodamine B assay; details: SNB-75, 48 h, values are per cent of control
Malme-3M = assay: Growth inhibition of human MALME-3M cells at 10 uM after 48 hrs by sulforhodamine B assay; details: values are per cent of control
[2] = Growth inhibition of human UACC257 cells at 10 uM after 48 hrs by sulforhodamine B assay; details: UACC-257, 48 h, values are per cent of control
[3] = Growth inhibition of human OVCAR3 cells at 10 uM after 48 hrs by sulforhodamine B assay; details: OVCAR-3, 48 h, values are per cent of control
[4] = Growth inhibition of human OVCAR5 cells at 10 uM after 48 hrs by sulforhodamine B assay; details: OVCAR-5, 48 h, values are per cent of control
[5] = Growth inhibition of human SKOV3 cells at 10 uM after 48 hrs by sulforhodamine B assay; details: SK-OV-3, 48 h, values are per cent of control
A498 = assay: Growth inhibition of human A498 cells at 10 uM after 48 hrs by sulforhodamine B assay; details: A498, 48 h, values are per cent of control
[6] = Growth inhibition of human UO31 cells at 10 uM after 48 hrs by sulforhodamine B assay; details: UO-31, 48 h, values are per cent of control
[7] = Growth inhibition of human PC3 cells at 10 uM after 48 hrs by sulforhodamine B assay; details: PC-3, 48 h, values are per cent of control
MCF7 = assay: Growth inhibition of human MCF7 cells at 10 uM after 48 hrs by sulforhodamine B assay; details: MCF7, 48 h, values are per cent of control
MDA-MB-231 = assay: Growth inhibition of human MDA-MB-231 cells at 10 uM after 48 hrs by sulforhodamine B assay; details: MDA-MB-231, 48 h, values are per cent of control
CCRF-CEM = assay: Growth inhibition of human CCRF-CEM cells at 10 uM after 48 hrs by sulforhodamine B assay; details: values are per cent of control
[8] = Growth inhibition of human HL-60(TB) cells at 10 uM after 48 hrs by sulforhodamine B assay; details: HL-60, 48 h, values are per cent of control
K562 = assay: Growth inhibition of human K562 cells at 10 uM after 48 hrs by sulforhodamine B assay; details: K562, 48 h, values are per cent of control
[9] = Growth inhibition of human MOLT4 cells at 10 uM after 48 hrs by sulforhodamine B assay; details: MOLT-4, 48 h, values are per cent of control
[10] = Growth inhibition of human RPMI8226 cells at 10 uM after 48 hrs by sulforhodamine B assay; details: RPMI-8226, 48 h, values are per cent of control
HT-29 = assay: Growth inhibition of human HT-29 cells at 10 uM after 48 hrs by sulforhodamine B assay; details: HT-29, 48 h, values are per cent of control
KM12 = assay: Growth inhibition of human KM12 cells at 10 uM after 48 hrs by sulforhodamine B assay; details: KM12, 48 h, values are per cent of control
[11] = Growth inhibition of human HOP92 cells at 10 uM after 48 hrs by sulforhodamine B assay; details: HOP-92, 48 h, values are per cent of control

Row | SMILES | growth, % of control at 10 µM [1] | growth, % of control at 10 µM (Malme-3M) | growth, % of control at 10 µM [2] | growth, % of control at 10 µM [3] | growth, % of control at 10 µM [4] | growth, % of control at 10 µM [5] | growth, % of control at 10 µM (A498) | growth, % of control at 10 µM [6] | growth, % of control at 10 µM [7] | growth, % of control at 10 µM (MCF7) | growth, % of control at 10 µM (MDA-MB-231) | growth, % of control at 10 µM (CCRF-CEM) | growth, % of control at 10 µM [8] | growth, % of control at 10 µM (K562) | growth, % of control at 10 µM [9] | growth, % of control at 10 µM [10] | growth, % of control at 10 µM (HT-29) | growth, % of control at 10 µM (KM12) | growth, % of control at 10 µM [11]
1 | COc1cc(/C=C(\C#N)c2ccc3c(c2)OCO3)cc(OC)c1 | 68.9% | 95.7% | 97% | 103% | 111% | 101% | 88.9% | 78.6% | 97.3% | 85.5% | 92.5% | 83.4% | 64.5% | 98.7% | 67.2% | 89.4% | 92.4% | 94.6% | 
2 | COc1ccc(/C=C(\C#N)c2ccc3c(c2)OCO3)cn1 | 57% | 90.6% | 89.4% | 100% | 95% | 83.1% | 70.8% | 82.3% | 77.9% | 83.5% | 75.6% | 87.7% | 70.8% | 64.2% | 71.5% | 73.2% | 63.8% | 63.9% | 64.9%
3 | N#C/C(=C\c1ccc(Cl)cc1Cl)c1ccc2c(c1)OCO2 | 76.2% | 76.4% | 93.8% | 98.4% | 106% | 97.3% | 101% | 75.1% | 93.4% | 110% | 119% | 93.3% | 87.3% | 76.2% | 79.2% | 84.6% | 89.7% | 76% | 99.9%
4 | N#C/C(=C\c1cccnc1Cl)c1ccc2c(c1)OCO2 | 102% | 107% | 112% | 115% | 106% | 103% | 90.7% | 87.6% | 101% | 112% | 99.8% | 93.7% | 83.8% | 113% |  | 89.3% | 106% | 109% | 
5 | N#C/C(=C\c1ccsc1)c1ccc2c(c1)OCO2 | 67.7% | 114% | 110% | 103% | 115% | 102% | 103% | 84.6% | 110% | 87.1% | 103% | 104% | 83.5% | 105% | 79.7% | 104% | 102% | 94.6% | 
6 | COc1cc(/C=C(\C#N)c2ccc3c(c2)OCO3)cc(OC)c1OC | 114% | 98.9% | 97.5% | 108% | 99.7% | 103% | 81.8% | 67.1% | 88.7% |  | 88.2% | 96.5% | 88.6% | 80.4% | 87.2% | 88.5% | 88.8% | 93.8% | 
7 | COc1ccc(/C(C#N)=C/c2ccc3c(c2)OCO3)cc1 | 80.8% | 79.9% |  | 88.7% | 93.9% | 88.6% | 63.3% | 72.8% | 81% | 60.8% | 68.7% | 72.1% | 66.6% | 37.9% | 70.4% | 64.7% | 64.5% | 63.6% | 93%
8 | N#C/C(=C\c1cc(F)cc(F)c1)c1ccc2c(c1)OCO2 | 112% | 116% | 104% | 109% | 103% | 102% | 111% | 104% | 101% | 88.4% | 102% | 97.7% | 108% | 106% | 83.1% | 94.7% | 109% | 97.6% | 125%
9 | N#C/C(=C\c1c(Cl)cccc1Cl)c1ccc2c(c1)OCO2 | 51.5% | 56.1% | 99.8% | 97.7% | 103% | 97.9% | 82.7% | 80.1% | 94.3% | 93.7% | 95.8% | 86.7% | 75% | 77.5% | 61.2% | 84.4% | 93.7% | 95.2% | 
10 | N#C/C(=C\c1ccc(Cl)c(Cl)c1)c1ccc2c(c1)OCO2 | 20.3% |  | 86.3% | 97.7% | 99.3% | 70.6% | 94.3% | 73.7% | 91.5% | 79.9% | 80.5% | 91.9% | 83.1% | 94.8% | 72.2% | 80.1% | 102% | 91.7% | 
11 | COc1ccc(/C=C(\C#N)c2ccc3c(c2)OCO3)c(Cl)c1OC | 73.5% | 79.1% | 106% | 100% | 92.8% | 89.2% | 72.5% | 74.9% |  | 71.6% | 82.3% |  |  | 39.2% |  |  | 70.3% | 69.2% | 
12 | N#C/C(=C\c1ccc2ccccc2n1)c1ccc2c(c1)OCO2 | 5.4% | 68.3% |  | 63% | 81.1% | 25.8% | 54.1% | 72.8% | 77.5% | 84.6% | 50.2% | 89.7% | 87.1% | 70.3% | 78.5% | 84.9% | 71.9% | 86.8% | 90.2%
